Measurements from PubChem BioAssay (NCI).
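Values below derive from 48-hour exposures of cells grown in 96-well plates, with endpoints linearly interpolated between the two concentrations bracketing the appropriate inhibition level. TGI denotes the concentration required for complete inhibition of growth.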

Tests used:
Experiment in all cases: growth of human tumour cells (NCI), 48 h
SN12C renal = test system: SN12C renal
HOP-62 NSCLC = test system: HOP-62 NSCLC
UACC-257 melanoma = test system: UACC-257 melanoma
786-0 renal = test system: 786-0 renal
OVCAR-8 ovarian = test system: OVCAR-8 ovarian
KM12 colon = test system: KM12 colon
HCC-2998 colon = test system: HCC-2998 colon
MDA-N = test system: MDA-N
PC-3 prostate = test system: PC-3 prostate
BT-549 breast = test system: BT-549 breast
SK-OV-3 ovarian = test system: SK-OV-3 ovarian
SW-620 colon = test system: SW-620 colon
SK-MEL-5 melanoma = test system: SK-MEL-5 melanoma
HOP-92 NSCLC = test system: HOP-92 NSCLC
SNB-75 CNS = test system: SNB-75 CNS
U251 CNS = test system: U251 CNS
OVCAR-3 ovarian = test system: OVCAR-3 ovarian
CCRF-CEM leukemia = test system: CCRF-CEM leukemia
LOX IMVI melanoma = test system: LOX IMVI melanoma
HCT-15 colon = test system: HCT-15 colon
UACC-62 melanoma = test system: UACC-62 melanoma
DU-145 prostate = test system: DU-145 prostate
RXF 393 renal = test system: RXF 393 renal
MDA-MB-435 = test system: MDA-MB-435
TK-10 renal = test system: TK-10 renal
A549 NSCLC = test system: A549 NSCLC
MOLT-4 leukemia = test system: MOLT-4 leukemia
SR leukemia = test system: SR leukemia
NCI/ADR-RES ovarian = test system: NCI/ADR-RES ovarian
CAKI-1 renal = test system: CAKI-1 renal
M14 melanoma = test system: M14 melanoma
SK-MEL-2 melanoma = test system: SK-MEL-2 melanoma
NCI-H23 lung = test system: NCI-H23 lung
SNB-19 CNS = test system: SNB-19 CNS
NCI-H226 lung = test system: NCI-H226 lung
IGROV1 ovarian = test system: IGROV1 ovarian
COLO 205 colon = test system: COLO 205 colon
SK-MEL-28 melanoma = test system: SK-MEL-28 melanoma
HCT-116 colon = test system: HCT-116 colon
HL-60(TB) leukemia = test system: HL-60(TB) leukemia
NCI-H460 lung = test system: NCI-H460 lung
A498 renal = test system: A498 renal
HS 578T breast = test system: HS 578T breast
MDA-MB-231 breast = test system: MDA-MB-231 breast
NCI-H522 lung = test system: NCI-H522 lung
MCF7 breast = test system: MCF7 breast
UO-31 renal = test system: UO-31 renal
SF-295 CNS = test system: SF-295 CNS
SF-539 CNS = test system: SF-539 CNS
SF-268 CNS = test system: SF-268 CNS
EKVX NSCLC = test system: EKVX NSCLC
MALME-3M melanoma = test system: MALME-3M melanoma
ACHN renal = test system: ACHN renal
K-562 leukemia = test system: K-562 leukemia
HT29 colon = test system: HT29 colon
OVCAR-4 ovarian = test system: OVCAR-4 ovarian
T-47D breast = test system: T-47D breast
RPMI-8226 leukemia = test system: RPMI-8226 leukemia
OVCAR-5 ovarian = test system: OVCAR-5 ovarian

COc1ccc(Oc2nc3cc(C(F)(F)F)ccc3nc2C(C)C)cc1
TGI (SN12C renal): 59.7 µM
TGI (HOP-62 NSCLC): > 100 µM
TGI (UACC-257 melanoma): 73.9 µM
TGI (786-0 renal): > 100 µM
TGI (OVCAR-8 ovarian): 94.5 µM
TGI (KM12 colon): > 100 µM
TGI (HCC-2998 colon): 41.5 µM
TGI (MDA-N): > 100 µM
TGI (PC-3 prostate): > 100 µM
TGI (BT-549 breast): 65.8 µM
TGI (SK-OV-3 ovarian): > 100 µM
TGI (SW-620 colon): 84.2 µM
TGI (SK-MEL-5 melanoma): 52.2 µM
TGI (HOP-92 NSCLC): 54.9 µM
TGI (SNB-75 CNS): 95.7 µM
TGI (U251 CNS): 50.8 µM
TGI (OVCAR-3 ovarian): 93.3 µM
TGI (CCRF-CEM leukemia): > 100 µM
TGI (LOX IMVI melanoma): 30.5 µM
TGI (HCT-15 colon): 59.4 µM
TGI (UACC-62 melanoma): > 100 µM
TGI (DU-145 prostate): > 100 µM
TGI (RXF 393 renal): 40.7 µM
TGI (MDA-MB-435): > 100 µM
TGI (TK-10 renal): > 100 µM
TGI (A549 NSCLC): > 100 µM
TGI (MOLT-4 leukemia): 36.9 µM
TGI (SR leukemia): 36.6 µM
TGI (NCI/ADR-RES ovarian): 44.1 µM
TGI (CAKI-1 renal): > 100 µM
TGI (M14 melanoma): > 100 µM
TGI (SK-MEL-2 melanoma): 38.5 µM
TGI (NCI-H23 lung): 52.6 µM
TGI (SNB-19 CNS): > 100 µM
TGI (NCI-H226 lung): 49.6 µM
TGI (IGROV1 ovarian): 82.7 µM
TGI (COLO 205 colon): 30.2 µM
TGI (SK-MEL-28 melanoma): > 100 µM
TGI (HCT-116 colon): > 100 µM
TGI (HL-60(TB) leukemia): 37.7 µM
TGI (NCI-H460 lung): 68.8 µM
TGI (A498 renal): 58.3 µM
TGI (HS 578T breast): > 100 µM
TGI (MDA-MB-231 breast): 79 µM
TGI (NCI-H522 lung): 41.3 µM
TGI (MCF7 breast): 39.5 µM
TGI (UO-31 renal): 95 µM
TGI (SF-295 CNS): 51 µM
TGI (SF-539 CNS): > 100 µM
TGI (SF-268 CNS): > 100 µM
TGI (EKVX NSCLC): 50.1 µM
TGI (MALME-3M melanoma): 72.4 µM
TGI (ACHN renal): 90.4 µM
TGI (K-562 leukemia): 86.7 µM
TGI (HT29 colon): 44.6 µM
TGI (OVCAR-4 ovarian): > 100 µM
TGI (T-47D breast): 54.4 µM
TGI (RPMI-8226 leukemia): 42.4 µM
TGI (OVCAR-5 ovarian): 77.4 µM
